Results reported in US20160244452A1, “HETEROCYCLIC COMPOUNDS AND USES THEREOF” (INFINITY PHARMACEUTICALS, INC., priority 2014, published 2016).

Assays:
[1] = target: T1, β PI3K (Homo sapiens, UniProt P42338); assay: PI3-Kinase Promega ADP-Glo Max assay, β isoform; type: biochemical; details: 40 nM kinase, 3 mM ATP, 500 uM diC8-PtdInsP
T1 construct: purchased Millipore
Description: (§1) PI3-Kinase Promega™ Assay
(§2) Promega ADP-Glo Max assay kit (Cat. No. V7002) was utilized to determine IC50 values for α, β, δ and γ isoforms of human Class I PI3 kinases (Millipore). Samples of kinase (20 nM α or δ, 40 nM β or γ isoform) were incubated with compound for 15 minutes at room temperature in reaction buffer (15 mM HEPES pH 7.4, 20 mM NaCl, 1 mM EGTA, 0.02% Tween 20, 10 mM MgCl2, 0.2 mg/mL bovine-γ-globulins) followed by addition of ATP/diC8-PtdInsP mixture to give final concentrations of 3 mM ATP and 500 uM diC8-PtdInsP. Reactions were incubated at room temperature for 2 hours followed by addition of 25 uL of stop solution. After a 40-minute incubation at room temperature, 50 uL of Promega detection mix was added followed by incubation for 1 hour at room temperature. Plates were then read on Envision plate reader in luminescence mode. Data was converted to % inhibition using the following equation below: […]
(§3) where S is the sample luminescence, Pos is a positive control without added PI3K, Neg is the negative control without added compound. Data was then plotted as % inhibition vs compound concentration. Data fit to 4 parameter logistic equation to determine IC50 values: […]
(§4) Certain compounds provided herein were tested in PI3-Kinase Promega Assay using procedures as described above to determine IC50 values for α, β, δ and/or γ isoforms.

[2] = target: T2, p110 δ (Homo sapiens, UniProt O00329); assay: PI3K-δ selective cellular assay: phospho-AKT in anti-human IgM stimulated RAJI cells; type: cell-based; details: serum-starved RAJI cells stimulated with anti-human IgM
T2 construct: endogenous in cells; host or cells: RAJI cells
Description: (a) PI3K-δ Selective Assay
A compound's ability in selectively inhibiting PI3K-δ can be assessed using RAJI cells, i.e., B lymphocyte cells derived from lymphoma patients. Briefly, serum-starved RAJI cells are stimulated with anti-human IgM, thereby causing signaling through the B-cell receptors, as described in, for example, He et al., Leukemia Research (2009) 33: 798-802. B-cell receptor signaling is important for the activation, differentiation, and survival of B cells and certain B-cell derived cancers. Reduction of phospho-AKT is indicative of compounds that can inhibit B-cell proliferation and function in certain diseases. By monitoring the reduction of phospho-AKT in stimulated RAJI cells (using for example, phospho-AKT antibodies), a compound's potential efficacy in selectively inhibiting PI3Kδ can be assessed.
Certain compounds provided herein were tested in RAJI cell model using procedures as described above.

[3] = target: T3, δ PI3K (Homo sapiens, UniProt O00329); assay: PI3-Kinase Promega ADP-Glo Max assay, δ isoform; type: biochemical; details: 20 nM kinase, 3 mM ATP, 500 uM diC8-PtdInsP
T3 construct: purchased Millipore
T3 sequence (O00329 whole entry, canonical isoform): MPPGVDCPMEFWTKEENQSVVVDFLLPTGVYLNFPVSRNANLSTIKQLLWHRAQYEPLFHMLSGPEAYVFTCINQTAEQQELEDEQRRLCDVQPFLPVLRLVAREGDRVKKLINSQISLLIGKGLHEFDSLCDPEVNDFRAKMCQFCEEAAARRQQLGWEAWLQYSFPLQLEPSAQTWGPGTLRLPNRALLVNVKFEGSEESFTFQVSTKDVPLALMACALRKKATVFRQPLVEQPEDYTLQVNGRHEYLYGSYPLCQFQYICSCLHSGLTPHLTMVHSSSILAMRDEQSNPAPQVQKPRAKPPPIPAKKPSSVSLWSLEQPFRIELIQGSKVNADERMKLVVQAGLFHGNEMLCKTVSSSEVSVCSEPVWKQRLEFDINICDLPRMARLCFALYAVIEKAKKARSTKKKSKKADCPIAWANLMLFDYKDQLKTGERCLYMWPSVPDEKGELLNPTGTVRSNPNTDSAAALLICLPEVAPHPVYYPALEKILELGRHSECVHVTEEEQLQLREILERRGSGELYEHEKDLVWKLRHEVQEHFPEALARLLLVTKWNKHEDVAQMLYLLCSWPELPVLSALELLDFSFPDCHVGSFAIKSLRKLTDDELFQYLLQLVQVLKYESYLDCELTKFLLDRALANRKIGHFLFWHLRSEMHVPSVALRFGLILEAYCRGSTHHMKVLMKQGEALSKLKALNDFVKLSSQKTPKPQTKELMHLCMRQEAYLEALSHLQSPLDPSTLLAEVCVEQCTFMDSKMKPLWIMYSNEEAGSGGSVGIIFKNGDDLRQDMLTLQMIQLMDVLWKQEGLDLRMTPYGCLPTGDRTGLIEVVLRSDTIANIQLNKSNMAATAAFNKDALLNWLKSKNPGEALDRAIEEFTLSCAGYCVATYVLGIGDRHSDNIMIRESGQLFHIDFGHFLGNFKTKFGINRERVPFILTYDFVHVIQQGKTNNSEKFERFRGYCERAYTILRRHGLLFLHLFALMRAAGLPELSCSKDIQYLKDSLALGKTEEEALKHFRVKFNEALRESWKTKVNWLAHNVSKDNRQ
T3 sequence (P27986 whole entry partner, canonical isoform): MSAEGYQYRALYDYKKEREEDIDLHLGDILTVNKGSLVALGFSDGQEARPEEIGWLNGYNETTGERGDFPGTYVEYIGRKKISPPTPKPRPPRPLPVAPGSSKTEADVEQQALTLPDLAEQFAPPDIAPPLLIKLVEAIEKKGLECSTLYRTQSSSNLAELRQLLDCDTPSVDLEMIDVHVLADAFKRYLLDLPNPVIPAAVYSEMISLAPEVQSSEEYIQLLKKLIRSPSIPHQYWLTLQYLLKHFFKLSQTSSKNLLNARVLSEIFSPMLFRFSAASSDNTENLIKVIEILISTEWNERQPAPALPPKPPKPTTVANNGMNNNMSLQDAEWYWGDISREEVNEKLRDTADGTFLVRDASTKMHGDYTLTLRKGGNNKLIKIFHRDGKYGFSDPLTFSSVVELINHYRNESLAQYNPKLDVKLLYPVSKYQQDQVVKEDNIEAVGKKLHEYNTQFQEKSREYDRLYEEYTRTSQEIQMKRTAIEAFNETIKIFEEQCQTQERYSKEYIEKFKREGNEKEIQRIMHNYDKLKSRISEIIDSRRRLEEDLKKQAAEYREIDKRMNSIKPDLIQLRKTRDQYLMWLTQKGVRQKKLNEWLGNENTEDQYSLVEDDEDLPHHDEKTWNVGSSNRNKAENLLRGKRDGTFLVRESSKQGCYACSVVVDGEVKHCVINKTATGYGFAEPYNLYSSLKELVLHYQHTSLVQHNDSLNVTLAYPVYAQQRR
Description: as §1, §2, §3, §4

[4] = target: T4, γ PI3K (Homo sapiens, UniProt P48736); assay: PI3-Kinase Promega ADP-Glo Max assay, γ isoform; type: biochemical; details: 40 nM kinase, 3 mM ATP, 500 uM diC8-PtdInsP
T4 construct: purchased Millipore
T4 sequence (P48736 whole entry, canonical isoform): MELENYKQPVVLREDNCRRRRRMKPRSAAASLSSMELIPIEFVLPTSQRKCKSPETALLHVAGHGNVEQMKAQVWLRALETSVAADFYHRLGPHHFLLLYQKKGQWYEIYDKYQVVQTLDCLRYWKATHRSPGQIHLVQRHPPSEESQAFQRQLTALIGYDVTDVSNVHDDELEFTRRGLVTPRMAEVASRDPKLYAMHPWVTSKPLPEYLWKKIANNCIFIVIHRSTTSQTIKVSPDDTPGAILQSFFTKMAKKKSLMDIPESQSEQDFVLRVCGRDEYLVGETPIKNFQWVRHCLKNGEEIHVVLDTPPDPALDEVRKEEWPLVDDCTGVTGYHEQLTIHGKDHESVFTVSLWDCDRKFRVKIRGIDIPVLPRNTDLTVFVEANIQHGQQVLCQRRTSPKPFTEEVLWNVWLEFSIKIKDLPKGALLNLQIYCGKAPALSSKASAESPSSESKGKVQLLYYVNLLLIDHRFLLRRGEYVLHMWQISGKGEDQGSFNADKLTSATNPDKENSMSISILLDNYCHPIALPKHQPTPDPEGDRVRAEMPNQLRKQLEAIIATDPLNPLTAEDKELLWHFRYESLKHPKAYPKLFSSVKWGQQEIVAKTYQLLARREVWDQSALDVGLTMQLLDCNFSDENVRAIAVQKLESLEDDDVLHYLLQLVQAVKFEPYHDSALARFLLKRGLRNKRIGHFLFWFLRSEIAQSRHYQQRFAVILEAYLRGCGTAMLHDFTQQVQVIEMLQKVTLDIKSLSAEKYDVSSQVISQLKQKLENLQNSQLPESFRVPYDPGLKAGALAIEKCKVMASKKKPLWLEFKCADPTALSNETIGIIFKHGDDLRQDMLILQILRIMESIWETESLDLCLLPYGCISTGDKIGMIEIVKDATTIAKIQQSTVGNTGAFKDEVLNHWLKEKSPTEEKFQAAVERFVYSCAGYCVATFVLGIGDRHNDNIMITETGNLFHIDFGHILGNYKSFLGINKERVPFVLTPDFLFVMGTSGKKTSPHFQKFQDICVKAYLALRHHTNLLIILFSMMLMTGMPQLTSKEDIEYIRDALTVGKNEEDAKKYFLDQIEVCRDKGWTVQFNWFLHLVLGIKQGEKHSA
Description: as §1, §2, §3, §4

[5] = target: T5, α PI3K (Homo sapiens, UniProt P42336); assay: PI3-Kinase Promega ADP-Glo Max assay, α isoform; type: biochemical; details: 20 nM kinase, 3 mM ATP, 500 uM diC8-PtdInsP
T5 construct: purchased Millipore
Description: as §1, §2, §3, §4

[6] = target: T6, p110 γ (Mus musculus, UniProt Q9JHG7); assay: PI3K-γ selective cellular assay: phospho-AKT in C5a stimulated RAW264.7 macrophages; type: cell-based; details: serum-starved RAW264.7 cells stimulated with C5a
T6 construct: endogenous in cells; host or cells: RAW264.7 macrophages
T6 sequence (Q9JHG7 whole entry): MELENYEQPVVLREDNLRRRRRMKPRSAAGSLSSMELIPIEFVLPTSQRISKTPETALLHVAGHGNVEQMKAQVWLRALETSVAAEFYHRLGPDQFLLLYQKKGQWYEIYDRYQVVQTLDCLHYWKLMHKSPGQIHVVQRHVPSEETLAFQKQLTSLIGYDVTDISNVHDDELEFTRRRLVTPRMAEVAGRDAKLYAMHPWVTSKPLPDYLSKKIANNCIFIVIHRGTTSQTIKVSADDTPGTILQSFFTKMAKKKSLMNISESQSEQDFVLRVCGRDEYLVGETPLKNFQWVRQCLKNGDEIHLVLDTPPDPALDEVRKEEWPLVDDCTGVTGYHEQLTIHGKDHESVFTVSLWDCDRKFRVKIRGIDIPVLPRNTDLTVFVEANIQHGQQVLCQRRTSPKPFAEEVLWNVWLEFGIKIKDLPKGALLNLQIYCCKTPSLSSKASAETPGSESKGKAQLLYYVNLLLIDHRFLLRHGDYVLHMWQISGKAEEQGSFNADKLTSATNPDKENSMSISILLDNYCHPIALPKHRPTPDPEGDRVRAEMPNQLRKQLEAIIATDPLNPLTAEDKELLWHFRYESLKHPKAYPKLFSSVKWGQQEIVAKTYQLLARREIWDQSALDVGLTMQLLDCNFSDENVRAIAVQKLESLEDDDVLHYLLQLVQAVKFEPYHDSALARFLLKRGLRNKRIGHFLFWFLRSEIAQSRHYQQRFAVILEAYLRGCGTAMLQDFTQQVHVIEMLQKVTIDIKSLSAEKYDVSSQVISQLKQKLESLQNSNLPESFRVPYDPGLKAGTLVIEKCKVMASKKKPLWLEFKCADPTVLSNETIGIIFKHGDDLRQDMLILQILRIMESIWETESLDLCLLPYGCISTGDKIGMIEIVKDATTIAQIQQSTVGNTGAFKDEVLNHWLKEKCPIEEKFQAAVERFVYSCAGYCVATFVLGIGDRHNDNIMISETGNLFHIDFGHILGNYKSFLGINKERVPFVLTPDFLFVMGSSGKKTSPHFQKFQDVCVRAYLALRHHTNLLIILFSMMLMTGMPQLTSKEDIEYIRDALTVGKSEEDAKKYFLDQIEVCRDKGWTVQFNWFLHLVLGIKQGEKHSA
Description: (b) PI3K-γ Selective Assay
A compound's ability in selectively inhibiting PI3K-γ can be assessed using RAW264.7 macrophages. Briefly, serum-starved RAW264.7 cells are stimulated with a known GPCR agonist C5a. See, e.g., Camps et al., Nature Medicine (2005) 11(9):936-943. Cells can be treated with test compounds prior to, simultaneously with, or subsequent to the stimulation by C5a. RAW 264.7 cells respond to the complement component fragment C5a through activation of the C5a receptor, and the C5a receptor activates macrophages and induces cell migration. Test compounds' ability to inhibit C5a-mediated AKT phosphorylation is indicative of selective inhibition of PI3K-γ. Thus, by monitoring the reduction of phospho-AKT in stimulated RAW 264.7 cells (using for example, phospho-AKT antibodies), a compound's potential efficacy in selectively inhibiting PI3Kγ can be assessed.
Certain compounds provided herein were tested in RAW 264.7 cell model using procedures as described above.

[7] = system: BTK or MEK pathway; assay: Effect on BTK or MEK pathway

T1 sequence (P42338 whole entry, canonical isoform): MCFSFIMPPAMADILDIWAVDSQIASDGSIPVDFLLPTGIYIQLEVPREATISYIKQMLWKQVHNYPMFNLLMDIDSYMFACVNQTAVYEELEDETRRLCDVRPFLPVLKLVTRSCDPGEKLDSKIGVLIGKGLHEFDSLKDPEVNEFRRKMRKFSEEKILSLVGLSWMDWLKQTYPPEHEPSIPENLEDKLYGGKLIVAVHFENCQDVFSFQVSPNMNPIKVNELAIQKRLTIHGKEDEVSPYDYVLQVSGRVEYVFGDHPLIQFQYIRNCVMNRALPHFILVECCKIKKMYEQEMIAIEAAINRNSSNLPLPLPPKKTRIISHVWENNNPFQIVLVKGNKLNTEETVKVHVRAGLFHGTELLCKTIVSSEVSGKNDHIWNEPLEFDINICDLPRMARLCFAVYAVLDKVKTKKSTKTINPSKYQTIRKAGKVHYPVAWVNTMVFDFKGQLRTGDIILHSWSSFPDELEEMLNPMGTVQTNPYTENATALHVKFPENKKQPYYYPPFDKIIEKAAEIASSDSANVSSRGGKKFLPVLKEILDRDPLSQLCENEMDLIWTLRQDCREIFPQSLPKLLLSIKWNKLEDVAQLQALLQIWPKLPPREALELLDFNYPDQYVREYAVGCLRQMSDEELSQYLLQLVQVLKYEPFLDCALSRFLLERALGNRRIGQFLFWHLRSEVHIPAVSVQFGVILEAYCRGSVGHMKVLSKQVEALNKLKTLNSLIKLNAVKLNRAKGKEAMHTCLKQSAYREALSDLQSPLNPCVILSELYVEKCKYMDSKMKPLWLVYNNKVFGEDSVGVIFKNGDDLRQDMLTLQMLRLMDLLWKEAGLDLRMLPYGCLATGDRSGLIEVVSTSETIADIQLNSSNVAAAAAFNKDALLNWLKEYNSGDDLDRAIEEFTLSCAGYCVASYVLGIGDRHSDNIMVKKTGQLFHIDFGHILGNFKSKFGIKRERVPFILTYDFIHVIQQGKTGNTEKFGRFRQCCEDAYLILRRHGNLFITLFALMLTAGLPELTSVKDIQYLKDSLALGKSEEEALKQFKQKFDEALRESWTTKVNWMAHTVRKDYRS
T1 sequence (P27986 whole entry partner, canonical isoform): as the sequence (P27986 whole entry partner, canonical isoform) above

| IC50 [1] [nM] | IC50 [2] [nM] | IC50 [3] [nM] | IC50 [4] [nM] | IC50 [5] [nM] | IC50 [6] [nM] | Compound | Effect on BTK or MEK pathway [7] |
| --- | --- | --- | --- | --- | --- | --- | --- |
| 100 to 3500 | 1 to 10 | 10 to 100 | 100 to 3500 | 3500 to 10000 | 100 to 3500 | CC[C@H](Nc1ncnc2[nH]cnc12)c1cc2cccc(F)c2c(=O)n1-c1ccccc1 [1 s] |  |
| 100 to 3500 | 1 to 10 | 1 to 10 | 100 to 3500 | 100 to 3500 | 10 to 100 | C[C@H](Nc1ncnc2[nH]cnc12)c1cc2ccc(F)c(Cl)c2c(=O)n1-c1ccccc1 [96 s] |  |
|  |  |  |  |  |  | CCC(Nc1ncnc2[nH]cnc12)c1cc2cccc(F)c2c(=O)n1-c1ccccc1 (stereo not shown) [Compound 1] | does not affect BTK or MEK pathway |
